Data taken from the supplement of paper PMC13207355.

Tests used:
Conditions in all cases: exposure time: 72 h
E28 [1] = patient-derived glioblastoma stem cells of classical subtype; test: phenotypic distance (Euclidean, principal components) from DMSO controls (arbitrary units); higher = stronger morphological change
E34 [2] = patient-derived glioblastoma stem cells of proneural subtype; test: as above
E31 [3] = patient-derived glioblastoma stem cells of proneural subtype; test: as above
E13 [4] = patient-derived glioblastoma stem cells of classical subtype; test: as above
E57 [5] = patient-derived glioblastoma stem cells of mesenchymal subtype; test: as above
E21 [6] = patient-derived glioblastoma stem cells of mesenchymal subtype; test: as above
FT3469 [7] = normal neural stem cell line; test: as above
E28 [8] = test: surviving fraction (nuclei count normalised to DMSO); higher = more cells surviving (less toxic)
E34 [9] = test: as above
E31 [10] = test: as above
E13 [11] = test: as above
E57 [12] = test: as above
E21 [13] = test: as above
FT3469 [14] = test: as above
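Throughout, for phenotypic distance (Euclidean, principal components) from DMSO controls: cell Painting imaging in 384-well plates, CellProfiler features reduced to at least 20 principal components, Euclidean distance versus same-plate DMSO vehicle wells (0.1% v/v), median over six images per well.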
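Throughout, for surviving fraction (nuclei count normalised to DMSO): nuclei counted by high-content imaging of Hoechst-stained cells in laminin-coated 384-well plates, relative to 0.1% DMSO vehicle wells, with staurosporine as cell-death control.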

Nc1ncnc2c1c(-c1ccc(Oc3ccccc3)cc1)cn2C1CCCC1
Conditions | phenotypic distance | surviving fraction
E13 [4], 4.1 nM | 0.425 | –
E13 [4], 12.3 nM | 1.04 | –
E13 [4], 37 nM | 0.606 | –
E13 [4], 111.1 nM | 0.653 | –
E13 [4], 333.3 nM | 0.532 | –
E13 [4], 1000 nM | 0.572 | –
E13 [4], 3000 nM | 0.738 | –
E13 [11], 4.1 nM | – | 0.996
E13 [11], 12.3 nM | – | 1.07
E13 [11], 37 nM | – | 0.893
E13 [11], 111.1 nM | – | 0.884
E13 [11], 333.3 nM | – | 1.02
E13 [11], 1000 nM | – | 0.997
E13 [11], 3000 nM | – | 0.855
E21 [6], 4.1 nM | 0.617 | –
E21 [6], 12.3 nM | 0.6 | –
E21 [6], 37 nM | 0.721 | –
E21 [6], 111.1 nM | 0.773 | –
E21 [6], 333.3 nM | 0.934 | –
E21 [6], 1000 nM | 1.32 | –
E21 [6], 3000 nM | 0.949 | –
E21 [13], 4.1 nM | – | 0.864
E21 [13], 12.3 nM | – | 1.05
E21 [13], 37 nM | – | 1.03
E21 [13], 111.1 nM | – | 0.984
E21 [13], 333.3 nM | – | 0.967
E21 [13], 1000 nM | – | 1.01
E21 [13], 3000 nM | – | 0.85
E28 [1], 4.1 nM | 0.587 | –
E28 [1], 12.3 nM | 0.603 | –
E28 [1], 37 nM | 0.442 | –
E28 [1], 111.1 nM | 0.847 | –
E28 [1], 333.3 nM | 0.677 | –
E28 [1], 1000 nM | 0.737 | –
E28 [1], 3000 nM | 0.765 | –
E28 [8], 4.1 nM | – | 1.07
E28 [8], 12.3 nM | – | 0.954
E28 [8], 37 nM | – | 0.988
E28 [8], 111.1 nM | – | 0.704
E28 [8], 333.3 nM | – | 1.2
E28 [8], 1000 nM | – | 0.86
E28 [8], 3000 nM | – | 0.854
E31 [3], 4.1 nM | 0.613 | –
E31 [3], 12.3 nM | 0.704 | –
E31 [3], 37 nM | 0.739 | –
E31 [3], 111.1 nM | 0.965 | –
E31 [3], 333.3 nM | 0.777 | –
E31 [3], 1000 nM | 1.23 | –
E31 [3], 3000 nM | 0.466 | –
E31 [10], 4.1 nM | – | 1.06
E31 [10], 12.3 nM | – | 1.07
E31 [10], 37 nM | – | 0.999
E31 [10], 111.1 nM | – | 0.95
E31 [10], 333.3 nM | – | 0.97
E31 [10], 1000 nM | – | 0.936
E31 [10], 3000 nM | – | 0.884
E34 [2], 4.1 nM | 0.654 | –
E34 [2], 12.3 nM | 0.927 | –
E34 [2], 37 nM | 0.674 | –
E34 [2], 111.1 nM | 0.841 | –
E34 [2], 333.3 nM | 0.534 | –
E34 [2], 1000 nM | 0.71 | –
E34 [2], 3000 nM | 0.746 | –
E34 [9], 4.1 nM | – | 1.23
E34 [9], 12.3 nM | – | 0.986
E34 [9], 37 nM | – | 1.18
E34 [9], 111.1 nM | – | 1.03
E34 [9], 333.3 nM | – | 0.93
E34 [9], 1000 nM | – | 0.958
E34 [9], 3000 nM | – | 0.916
E57 [5], 4.1 nM | 0.461 | –
E57 [5], 12.3 nM | 1.24 | –
E57 [5], 37 nM | 1 | –
E57 [5], 111.1 nM | 1.29 | –
E57 [5], 333.3 nM | 0.478 | –
E57 [5], 1000 nM | 0.867 | –
E57 [5], 3000 nM | 0.813 | –
E57 [12], 4.1 nM | – | 0.986
E57 [12], 12.3 nM | – | 1.06
E57 [12], 37 nM | – | 1.08
E57 [12], 111.1 nM | – | 1.06
E57 [12], 333.3 nM | – | 1.03
E57 [12], 1000 nM | – | 0.942
E57 [12], 3000 nM | – | 0.951
FT3469 [7], 4.1 nM | 0.487 | –
FT3469 [7], 12.3 nM | 1.13 | –
FT3469 [7], 37 nM | 0.764 | –
FT3469 [7], 111.1 nM | 0.833 | –
FT3469 [7], 333.3 nM | 1.17 | –
FT3469 [7], 1000 nM | 0.824 | –
FT3469 [7], 3000 nM | 0.929 | –
FT3469 [14], 4.1 nM | – | 0.964
FT3469 [14], 12.3 nM | – | 1.04
FT3469 [14], 37 nM | – | 0.976
FT3469 [14], 111.1 nM | – | 0.901
FT3469 [14], 333.3 nM | – | 0.875
FT3469 [14], 1000 nM | – | 0.967
FT3469 [14], 3000 nM | – | 0.895
